Key:
Mus musculus [1] = assay: Parenteral antimalarial activity against Plasmodium vinckei vinckei in mice (Mus musculus) measured as % cured and increase in MST (days) at 20 mg/kg dose.; type: functional
Mus musculus [2] = assay: Oral antimalarial activity against Plasmodium vinckei in mice (Mus musculus) measured as % cured and increase in MST (days) at 25 mg/kg dose.; type: functional
Mus musculus [3] = assay: Parenteral antimalarial activity against Plasmodium vinckei vinckei in mice (Mus musculus) measured as % cured and increase in MST (days) at 25 mg/kg dose.; type: functional
Mus musculus [4] = assay: Oral antimalarial activity against Plasmodium vinckei in mice (Mus musculus) measured as % cured and increase in MST (days) at 50 mg/kg dose.; type: functional
Mus musculus [5] = assay: Oral antimalarial activity against Plasmodium vinckei in mice (Mus musculus) measured as increase in mean survival time at 25 mg/kg dose.; type: functional
Mus musculus [6] = assay: Oral antimalarial activity against Plasmodium vinckei vinckei in mice (Mus musculus) measured as % cured and increase in MST (days) at 100 mg/kg dose.; type: functional
Mus musculus [7] = assay: Oral antimalarial activity against Plasmodium vinckei vinckei in mice (Mus musculus) measured as % cured and increase in MST (days) at 150 mg/kg dose.; type: functional
Mus musculus [8] = assay: Parenteral antimalarial activity against Plasmodium vinckei in mice (Mus musculus) measured as % cured and increase in MST (days) at 15 mg/kg dose.; type: functional
Mus musculus [9] = assay: Oral antimalarial activity against Plasmodium vinckei in mice (Mus musculus) measured as % cured and increase in MST (days) at 75 mg/kg dose.; type: functional
Mus musculus [10] = assay: Parenteral antimalarial activity against Plasmodium vinckei in mice (Mus musculus) measured as % cured and increase in MST (days) at 30 mg/kg dose.
Mus musculus [11] = assay: Parenteral antimalarial activity against Plasmodium vinckei vinckei in mice (Mus musculus) measured as % cured and increase in MST (days) at 10 mg/kg dose.; type: functional
Mus musculus [12] = assay: Oral antimalarial activity against Plasmodium vinckei in mice (Mus musculus) measured as % cured and increase in MST (days) at 75 mg/kg dose; type: functional
Mus musculus [13] = assay: Parenteral antimalarial activity against Plasmodium vinckei in mice (Mus musculus) measured as % cured and increase in MST (days) at 20 mg/kg dose; type: functional
Mus musculus [14] = assay: Oral antimalarial activity against Plasmodium vinckei in mice (Mus musculus) measured as increase in mean survival time at 150 mg/kg dose; type: functional
Mus musculus [15] = assay: Parenteral antimalarial activity against Plasmodium vinckei vinckei in mice (Mus musculus) measured as % cured and increase in MST (days) at 15 mg/kg dose; type: functional
Mus musculus [16] = assay: Oral antimalarial activity against Plasmodium vinckei vinckei in mice (Mus musculus) measured as increase in mean survival time at 75 mg/kg dose; type: functional
Mus musculus [17] = assay: Oral antimalarial activity against Plasmodium vinckei in mice (Mus musculus) measured as % cured and increase in MST (days) at 25 mg/kg dose; type: functional
Mus musculus [18] = assay: Oral antimalarial activity against Plasmodium vinckei vinckei in mice (Mus musculus) measured as increase in mean survival time at 50 mg/kg dose; type: functional
Mus musculus [19] = assay: Oral antimalarial activity against Plasmodium vinckei vinckei in mice (Mus musculus) measured as % cured and increase in MST (days) at 100 mg/kg dose; type: functional
Mus musculus [20] = assay: Oral antimalarial activity against Plasmodium vinckei vinckei in mice (Mus musculus) measured as % cured and increase in MST (days) at 150 mg/kg dose; type: functional
Mus musculus [21] = assay: Oral antimalarial activity against Plasmodium vinckei in mice (Mus musculus) measured as increase in mean survival time at 100 mg/kg dose; type: functional
Mus musculus [22] = assay: Parenteral antimalarial activity against Plasmodium vinckei in mice (Mus musculus) measured as % cured and increase in MST (days) at 25 mg/kg dose; type: functional
Mus musculus [23] = assay: Parenteral antimalarial activity against Plasmodium vinckei in mice (Mus musculus) measured as increase in mean survival time at 15 mg/kg dose; type: functional
Mus musculus [24] = assay: Parenteral antimalarial activity against Plasmodium vinckei in mice (Mus musculus) measured as increase in mean survival time at 20 mg/kg dose; Toxic; type: functional
Mus musculus [25] = assay: Oral antimalarial activity against Plasmodium vinckei vinckei in mice (Mus musculus) measured as % cured and increase in MST (days) at 50 mg/kg dose; type: functional
Mus musculus [26] = assay: Parenteral antimalarial activity against Plasmodium vinckei in mice (Mus musculus) measured as increase in mean survival time at 10 mg/kg dose; type: functional
Mus musculus [27] = assay: Parenteral antimalarial activity against Plasmodium vinckei in mice (Mus musculus) measured as increase in mean survival time at 25 mg/kg dose; Toxic; type: functional
Mus musculus [28] = assay: Oral antimalarial activity against Plasmodium vinckei in mice (Mus musculus) measured as increase in mean survival time at 25 mg/kg dose; type: functional
Mus musculus [29] = assay: Parenteral antimalarial activity against Plasmodium vinckei in mice (Mus musculus) measured as % cured and increase in MST (days) at 10 mg/kg dose; type: functional

For `Cn1c(=O)nc2n(-c3cc(Cl)cc(Cl)c3)c3ccccc3nc-2c1=O`, the Cured (Mus musculus [1]) was 100%, the Cured (Mus musculus [2]) was 60% and the Cured (Mus musculus [3]) was 100%. The Cured (Mus musculus [4]) was 100%, the MST (Mus musculus [5]) was 3.5 days and the Cured (Mus musculus [6]) was 100%. It also gave a Cured (Mus musculus [7]) of 100%, a Cured (Mus musculus [8]) of 100% and a Cured (Mus musculus [9]) of 100%. For the same compound, the Cured (Mus musculus [10]) was 100% and the Cured (Mus musculus [11]) was 100%.

`Cn1c(=O)nc2n(-c3ccccc3Cl)c3ccccc3nc-2c1=O` gave a Cured (Mus musculus [12]) of 0%, a Cured (Mus musculus [13]) of 0% and an MST (Mus musculus [14]) of 0 days. It also gave a Cured (Mus musculus [15]) of 0%, an MST (Mus musculus [16]) of 0 days and a Cured (Mus musculus [17]) of 0%. The MST (Mus musculus [18]) was 0 days, the Cured (Mus musculus [19]) was 0% and the Cured (Mus musculus [20]) was 0%. The MST (Mus musculus [21]) was 0 days, the Cured (Mus musculus [22]) was 0% and the MST (Mus musculus [23]) was 0 days. The MST (Mus musculus [24]) was -0.2 days, the Cured (Mus musculus [25]) was 0% and the MST (Mus musculus [26]) was 0 days. For the same compound, the MST (Mus musculus [27]) was -1.4 days, the MST (Mus musculus [28]) was 0 days and the Cured (Mus musculus [29]) was 0%.

— ChEMBL document CHEMBL1124085, “Flavins as potential antimalarials. 1. 10-(Halophenyl)-3-methylflavins” (1988)
